Test results reported in ChEMBL document CHEMBL4725475, “Discovery of Potent and Selective 7-Azaindole Isoindolinone-Based PI3Kγ Inhibitors” (ACS Med Chem Lett, 2020).

Tests used:
Homo sapiens [1] = species on record: Homo sapiens; assay: Selectivity index, ratio of inhibition for PI3Kdelta (unknown origin) to inhibition for PI3K p120 gamma (unknown origin) using phosphatidylinositol 4,5-bisphosphate as substrate in presence of ATP incubated for 60 mins by ADP-Glo assay
Cytochrome P450 2C19 = Cytochrome P450 2C19 (Homo sapiens, UniProt P33261); assay: Inhibition of CYP2C19 (unknown origin) using S-mephenytoin as substrate measured after 5 to 20 mins in presence of NADPH by LC-MS/MS analysis; type: ADME
Cytochrome P450 2C19, sequence (P33261 whole entry, canonical isoform): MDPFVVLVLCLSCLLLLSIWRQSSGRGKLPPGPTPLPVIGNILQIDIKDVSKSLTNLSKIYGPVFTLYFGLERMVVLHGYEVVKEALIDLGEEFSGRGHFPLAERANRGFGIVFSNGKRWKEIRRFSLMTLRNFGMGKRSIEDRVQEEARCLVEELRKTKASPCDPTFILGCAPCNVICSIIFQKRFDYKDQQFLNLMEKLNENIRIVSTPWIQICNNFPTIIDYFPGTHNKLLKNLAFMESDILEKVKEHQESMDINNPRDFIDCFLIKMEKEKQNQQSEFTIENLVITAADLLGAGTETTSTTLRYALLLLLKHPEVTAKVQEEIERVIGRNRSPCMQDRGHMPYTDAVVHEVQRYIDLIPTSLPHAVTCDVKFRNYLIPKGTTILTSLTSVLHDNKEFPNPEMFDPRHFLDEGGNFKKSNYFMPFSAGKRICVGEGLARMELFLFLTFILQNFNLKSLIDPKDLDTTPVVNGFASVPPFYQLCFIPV

[2] = target: T1, Phosphatidylinositol 4,5-bisphosphate 3-kinase catalytic subunit gamma isoform (Homo sapiens, UniProt P48736); assay: Inhibition of PI3Kgamma in human THP-1 cells assessed as reduction in Akt phosphorylation at S473 residue incubated for 60 mins measured after 120 mins by alphalisa assay; type: cell-based
T1 sequence (P48736 whole entry, canonical isoform): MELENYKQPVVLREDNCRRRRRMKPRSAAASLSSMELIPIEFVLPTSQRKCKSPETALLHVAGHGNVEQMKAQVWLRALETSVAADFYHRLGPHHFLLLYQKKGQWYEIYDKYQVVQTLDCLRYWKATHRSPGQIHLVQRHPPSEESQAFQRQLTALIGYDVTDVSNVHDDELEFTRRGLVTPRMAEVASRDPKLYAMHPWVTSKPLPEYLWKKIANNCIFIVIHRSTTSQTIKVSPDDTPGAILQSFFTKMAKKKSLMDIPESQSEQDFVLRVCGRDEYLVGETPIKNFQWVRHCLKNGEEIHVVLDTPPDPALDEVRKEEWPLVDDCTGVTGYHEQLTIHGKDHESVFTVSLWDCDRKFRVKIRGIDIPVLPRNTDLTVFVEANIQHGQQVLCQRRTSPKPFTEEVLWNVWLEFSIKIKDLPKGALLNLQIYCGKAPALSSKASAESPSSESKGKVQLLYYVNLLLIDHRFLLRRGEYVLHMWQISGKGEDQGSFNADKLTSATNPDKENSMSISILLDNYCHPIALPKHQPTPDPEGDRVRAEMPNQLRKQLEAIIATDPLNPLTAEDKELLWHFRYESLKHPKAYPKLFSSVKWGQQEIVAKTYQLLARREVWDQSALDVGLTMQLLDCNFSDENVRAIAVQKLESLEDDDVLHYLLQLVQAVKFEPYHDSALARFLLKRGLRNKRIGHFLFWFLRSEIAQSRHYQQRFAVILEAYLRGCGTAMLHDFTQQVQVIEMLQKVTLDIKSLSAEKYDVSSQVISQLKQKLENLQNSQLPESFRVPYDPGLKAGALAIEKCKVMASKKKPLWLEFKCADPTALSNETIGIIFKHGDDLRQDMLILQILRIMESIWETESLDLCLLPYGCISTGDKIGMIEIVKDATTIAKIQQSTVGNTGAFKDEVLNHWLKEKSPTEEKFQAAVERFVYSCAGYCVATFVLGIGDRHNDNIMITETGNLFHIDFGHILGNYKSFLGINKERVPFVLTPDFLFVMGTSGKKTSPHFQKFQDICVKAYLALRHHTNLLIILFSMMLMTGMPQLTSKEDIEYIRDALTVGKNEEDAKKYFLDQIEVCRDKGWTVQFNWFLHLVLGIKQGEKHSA

Homo sapiens [3] = species on record: Homo sapiens; assay: Selectivity index, ratio of inhibition for PI3Kalpha (unknown origin) to inhibition for PI3K p120 gamma (unknown origin) using phosphatidylinositol 4,5-bisphosphate as substrate in presence of ATP incubated for 60 mins by ADP-Glo assay
Cytochrome P450 3A4 = Cytochrome P450 3A4 (Homo sapiens, UniProt P08684); assay: Inhibition of CYP3A4 (unknown origin) using midazolam as substrate measured after 5 to 20 mins in presence of NADPH by LC-MS/MS analysis; type: ADME
Cytochrome P450 3A4, sequence (P08684 whole entry): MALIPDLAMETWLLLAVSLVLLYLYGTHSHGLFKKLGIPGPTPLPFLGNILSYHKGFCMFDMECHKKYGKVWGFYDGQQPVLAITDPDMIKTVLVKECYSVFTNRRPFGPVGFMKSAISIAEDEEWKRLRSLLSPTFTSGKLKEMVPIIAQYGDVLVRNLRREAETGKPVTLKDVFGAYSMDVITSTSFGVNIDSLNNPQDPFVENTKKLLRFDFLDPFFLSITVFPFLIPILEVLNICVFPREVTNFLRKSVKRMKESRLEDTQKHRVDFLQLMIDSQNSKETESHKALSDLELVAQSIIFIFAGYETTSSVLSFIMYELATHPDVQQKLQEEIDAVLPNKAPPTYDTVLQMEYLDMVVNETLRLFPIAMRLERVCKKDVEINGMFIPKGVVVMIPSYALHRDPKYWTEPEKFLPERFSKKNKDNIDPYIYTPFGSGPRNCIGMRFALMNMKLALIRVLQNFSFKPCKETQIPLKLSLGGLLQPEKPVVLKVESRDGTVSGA

Cytochrome P450 1A2 = target: T2, Cytochrome P450 1A2 (Homo sapiens, UniProt P05177); assay: Inhibition of CYP1A2 (unknown origin) using phenacetin as substrate measured after 5 to 20 mins in presence of NADPH by LC-MS/MS analysis; type: ADME
T2 sequence (P05177 whole entry): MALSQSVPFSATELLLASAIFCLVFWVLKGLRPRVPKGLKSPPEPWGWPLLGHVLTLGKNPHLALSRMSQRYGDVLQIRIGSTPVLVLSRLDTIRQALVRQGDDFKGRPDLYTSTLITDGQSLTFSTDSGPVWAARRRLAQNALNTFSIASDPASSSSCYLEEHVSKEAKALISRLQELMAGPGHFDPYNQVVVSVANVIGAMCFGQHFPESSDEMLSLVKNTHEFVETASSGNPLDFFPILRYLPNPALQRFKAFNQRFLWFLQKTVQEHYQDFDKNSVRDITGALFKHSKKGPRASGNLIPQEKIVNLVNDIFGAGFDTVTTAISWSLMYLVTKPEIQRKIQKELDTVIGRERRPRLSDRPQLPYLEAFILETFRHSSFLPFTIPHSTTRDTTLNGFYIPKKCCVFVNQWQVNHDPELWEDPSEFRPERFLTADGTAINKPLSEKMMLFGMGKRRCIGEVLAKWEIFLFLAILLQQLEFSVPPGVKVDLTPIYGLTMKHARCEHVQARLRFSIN

[4] = target: T1, Phosphatidylinositol 4,5-bisphosphate 3-kinase catalytic subunit gamma isoform; assay: Inhibition of PI3K p120gamma (unknown origin) using phosphatidylinositol 4,5-bisphosphate as substrate in presence of ATP incubated for 60 mins by ADP-Glo assay
Cytochrome P450 2C9 = Cytochrome P450 2C9 (Homo sapiens, UniProt P11712); assay: Inhibition of CYP2C9 (unknown origin) using diclofenac as substrate measured after 5 to 20 mins in presence of NADPH by LC-MS/MS analysis; type: ADME
Cytochrome P450 2C9, sequence (P11712 whole entry): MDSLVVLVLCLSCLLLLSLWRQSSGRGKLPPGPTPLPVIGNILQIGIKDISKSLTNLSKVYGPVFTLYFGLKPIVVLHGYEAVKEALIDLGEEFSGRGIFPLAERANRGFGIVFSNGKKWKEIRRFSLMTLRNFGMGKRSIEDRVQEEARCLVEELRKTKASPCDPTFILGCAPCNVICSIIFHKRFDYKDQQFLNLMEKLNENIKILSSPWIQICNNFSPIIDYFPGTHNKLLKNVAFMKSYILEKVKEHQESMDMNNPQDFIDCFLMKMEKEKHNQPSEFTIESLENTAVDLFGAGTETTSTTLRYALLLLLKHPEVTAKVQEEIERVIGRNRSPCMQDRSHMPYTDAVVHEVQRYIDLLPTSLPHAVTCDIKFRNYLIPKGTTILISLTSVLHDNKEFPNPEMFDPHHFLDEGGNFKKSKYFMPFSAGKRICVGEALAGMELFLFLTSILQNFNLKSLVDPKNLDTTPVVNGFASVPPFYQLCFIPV

Cytochrome P450 2D6 = Cytochrome P450 2D6 (Homo sapiens, UniProt P10635); assay: Inhibition of CYP2D6 (unknown origin) using diclofenac as substrate measured after 5 to 20 mins in presence of NADPH by LC-MS/MS analysis; type: ADME
Cytochrome P450 2D6, sequence (P10635 whole entry): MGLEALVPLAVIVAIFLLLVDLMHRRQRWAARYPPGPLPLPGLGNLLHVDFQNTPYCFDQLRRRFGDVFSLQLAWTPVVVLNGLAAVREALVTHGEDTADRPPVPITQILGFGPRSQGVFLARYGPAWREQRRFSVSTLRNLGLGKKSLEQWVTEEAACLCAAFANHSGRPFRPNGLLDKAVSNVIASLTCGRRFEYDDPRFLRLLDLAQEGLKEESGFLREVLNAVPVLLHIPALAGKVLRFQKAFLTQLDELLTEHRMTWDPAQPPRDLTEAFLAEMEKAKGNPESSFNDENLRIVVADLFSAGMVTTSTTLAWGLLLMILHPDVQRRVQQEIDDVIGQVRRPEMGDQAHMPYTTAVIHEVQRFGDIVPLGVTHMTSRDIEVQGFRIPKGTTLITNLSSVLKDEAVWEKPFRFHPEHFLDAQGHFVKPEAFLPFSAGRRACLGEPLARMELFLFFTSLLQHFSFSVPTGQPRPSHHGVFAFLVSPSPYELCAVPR

[5] = Intrinsic clearance in cryopreserved human hepatocytes assessed as per million cells at 0.5 uM by LC-MS/MS analysis; type: ADME, cell-based, Hepatocyte
[6] = Intrinsic clearance in rat hepatocytes assessed as per million cells; type: ADME, cell-based, Hepatocyte
[7] = Clearance in Sprague-Dawley rat at 0.25 mg/kg, iv measured upto 8 hrs by LC/MS/MS analysis; type: ADME, organism-based; details: in vivo
[8] = Apparent permeability in human Caco2 cells; type: ADME, cell-based; details: Caco-2
[9] = Efflux ratio of permeability in human Caco2 cells; type: ADME, cell-based; details: Caco-2

Row | SMILES | Selectivity ratio (Homo sapiens [1]) | IC50 (Cytochrome P450 2C19) | IC50 [2] | Selectivity ratio (Homo sapiens [3]) | IC50 (Cytochrome P450 3A4) | IC50 (Cytochrome P450 1A2) | IC50 [4] | IC50 (Cytochrome P450 2C9) | IC50 (Cytochrome P450 2D6) | CLH [5] | CLH [6] | clearance [7] | Papp [8] | efflux ratio [9]
1 | Cc1cc(-c2cnc3[nH]cc(-c4ccncc4)c3c2)cc2c1C(=O)N([C@@H](C)C1CC1)C2 | 290 | < 0.1 µM | 0.22 µM | 379 | 0.3 µM | 0.7 µM | 0.0034 µM | 0.3 µM | 2 µM |  |  |  |  | 
2 | Cc1cc(-c2c[nH]c3ncc(-c4cc(C)c5c(c4)CN([C@@H](C)C4CC4)C5=O)cc23)ccc1C(=O)O | 505 |  | 0.078 µM | 433 |  |  | 0.0028 µM |  |  | 19 µL/min/1e6 cells | 51 µL/min/1e6 cells |  |  | 
3 | Cc1cc(-c2cnc3[nH]cc(-c4ccc(C(C)(C)C(=O)O)cc4)c3c2)cc2c1C(=O)N([C@@H](C)C1CC1)C2 | 968 |  | 0.18 µM | 835 |  |  | 0.0021 µM |  |  | 2.3 µL/min/1e6 cells | 27 µL/min/1e6 cells |  |  | 
4 | COc1cc(-c2c[nH]c3ncc(-c4cc(C)c5c(c4)CN([C@@H](C)C4CC4)C5=O)cc23)ccc1C(=O)O | 494 |  | 0.17 µM | 369 |  |  | 0.0015 µM |  |  |  |  |  |  | 
5 | Cc1cc(-c2cnc3[nH]cc(-c4ccc(CC(=O)O)cc4)c3c2)cc2c1C(=O)N([C@@H](C)C1CC1)C2 | 872 |  | 0.16 µM | 878 |  |  | 0.0026 µM |  |  | 6.9 µL/min/1e6 cells | 17 µL/min/1e6 cells |  |  | 
6 | Cc1cc(-c2c[nH]c3ncc(-c4cc5c(c(C(F)(F)F)c4)C(=O)N([C@@H](C)C4CC4)C5)cc23)ccc1C(=O)O | 335 |  | 0.04 µM | 918 |  |  | 0.0012 µM |  |  | < 1.2 µL/min/1e6 cells | 2 µL/min/1e6 cells |  |  | 
7 | C[C@@H](C1CC1)N1Cc2cc(-c3cnc4[nH]cc(-c5cnn(C)c5)c4c3)cc(S(=O)(=O)N(C)C)c2C1=O | 159 |  | 0.1 µM | 254 |  |  | 0.0026 µM |  |  |  |  |  |  | 
8 | Cc1cc(-c2c[nH]c3ncc(-c4cc(C)c5c(c4)CN([C@@H](C)C4CC4)C5=O)cc23)ccc1CC(=O)O | 397 |  | 0.15 µM | 539 |  |  | 0.0033 µM |  |  | 8 µL/min/1e6 cells | 23 µL/min/1e6 cells | 1.8 L/h/kg |  | 
9 | COC[C@H](C)N1Cc2cc(-c3cnc4[nH]cc(-c5ccncc5)c4c3)cc(C)c2C1=O | 216 |  | 0.6 µM | 51 |  |  | 0.009 µM |  |  |  |  |  |  | 
10 | Cc1cc(-c2c[nH]c3ncc(-c4cc5c(c(C(F)(F)F)c4)C(=O)N([C@@H](C)C4CC4)C5)cc23)cc(C)c1C(=O)O | 84 |  | 0.03 µM | 257 |  |  | 0.0028 µM |  |  | 1.8 µL/min/1e6 cells | < 1.2 µL/min/1e6 cells | 28 L/h/kg |  | 
11 | CC[C@@H](C1CC1)N1Cc2cc(-c3cnc4[nH]cc(-c5ccncc5)c4c3)cc(C)c2C1=O | > 414 |  | 0.8 µM | 255 |  |  | 0.006 µM |  |  |  |  |  |  | 
12 | Cc1cc(-c2cnc3[nH]cc(-c4ccc(C(C)(C)O)nc4)c3c2)cc2c1C(=O)N([C@@H](C)C1CC1)C2 | 183 |  | 0.6 µM | 416 |  |  | 0.0033 µM |  |  |  |  |  |  | 
13 | Cc1cc(-c2cnc3[nH]cc(C(=O)O)c3c2)cc2c1C(=O)N([C@@H](C)C1CC1)C2 | > 775 |  | 11 µM | > 775 |  |  | 0.013 µM |  |  |  |  |  |  | 
14 | Cc1cc(-c2cnc3[nH]cc(-c4ccncc4)c3c2)cc2c1C(=O)N(C(C)(C)C1CC1)C2 | 100 |  | 1.1 µM | 74 |  |  | 0.028 µM |  |  |  |  |  |  | 
15 | Cc1cc(-c2cnc3[nH]cc(-c4ccccn4)c3c2)cc2c1C(=O)N([C@@H](C)C1CC1)C2 | > 308 |  | 3.5 µM | > 308 |  |  | 0.033 µM |  |  |  |  |  |  | 
16 | Cc1cc(-c2cnc3[nH]cc(-c4ccc(C(=O)O)cc4)c3c2)cc2c1C(=O)N([C@@H](C)C1CC1)C2 | 136 |  | 0.14 µM | 259 |  |  | 0.0025 µM |  |  | 24 µL/min/1e6 cells | 54 µL/min/1e6 cells | 11 L/h/kg | 10.7 nm/s | 46.6
17 | Cc1cc(-c2cnc3[nH]cc(-c4cnn(C)c4)c3c2)cc2c1C(=O)N([C@@H](C)C1CC1)C2 | 379 |  | 0.2 µM | 898 |  |  | 0.00326 µM |  |  |  |  |  |  | 
18 | CC(C)c1cc(-c2cnc3[nH]cc(-c4cnn(C)c4)c3c2)cc2c1C(=O)N([C@@H](C)C1CC1)C2 | 1380 |  | 0.3 µM | 898 |  |  | 0.0042 µM |  |  |  |  |  |  | 
19 | Cc1cc(-c2c[nH]c3ncc(-c4cc(C)c5c(c4)CN([C@@H](C)C4CC4)C5=O)cc23)cc(C)c1C(=O)O | 1210 |  | 0.09 µM | 1520 |  |  | 0.0022 µM |  |  | 20 µL/min/1e6 cells | 46 µL/min/1e6 cells | 6.9 L/h/kg |  | 
20 | CNS(=O)(=O)c1cc(-c2cnc3[nH]cc(-c4cnn(C)c4)c3c2)cc2c1C(=O)N([C@@H](C)C1CC1)C2 | 101 |  | 0.07 µM | > 4160 |  |  | 0.004 µM |  |  |  |  |  |  | 
21 | Cc1cc(-c2cnc3[nH]cc(-c4ccncc4)c3c2)cc2c1C(=O)N(C(C)(C)C)C2 | 107 |  | 0.72 µM | 62 |  |  | 0.026 µM |  |  |  |  |  |  | 
22 | C[C@@H](C1CC1)N1Cc2cc(-c3cnc4[nH]cc(-c5cnn(C)c5)c4c3)cc(S(C)(=O)=O)c2C1=O | 289 |  | 0.05 µM | 1020 |  |  | 0.0015 µM |  |  |  |  |  |  | 
23 | Cc1cc(-c2cnc3[nH]cc(-c4ccc(C5(C(=O)O)CC5)cc4)c3c2)cc2c1C(=O)N([C@@H](C)C1CC1)C2 | 1400 |  | 0.15 µM | 863 |  |  | 0.0033 µM |  |  | 1.7 µL/min/1e6 cells | 16 µL/min/1e6 cells | 1.8 L/h/kg |  | 
24 | CC(=O)Nc1cc(-c2cnc3[nH]cc(-c4cnn(C)c4)c3c2)cc2c1C(=O)N([C@@H](C)C1CC1)C2 | > 2740 |  | 0.5 µM | > 1060 |  |  | 0.0025 µM |  |  |  |  |  |  | 
25 | C[C@@H](C1CC1)N1Cc2cc(-c3cnc4[nH]cc(-c5ccc(C6(C(=O)O)CC6)cc5)c4c3)cc(C(F)(F)F)c2C1=O | 620 |  | 0.11 µM | 742 |  |  | 0.0036 µM |  |  | 2.6 µL/min/1e6 cells | 18 µL/min/1e6 cells |  |  | 
